The values below come from patent US10526343B2, “Heterocyclic systems and pharmaceutical applications thereof” (University of Sharjah, priority 2018, dated 2020).

Experiment [1] relates to Staphylococcus aureus (ATCC 25923). The experiment can be described thus: Cell viability assay (resazurin) screening for antibacterial activity. Type of experiment: cell-based. The conditions noted are these: single high concentration of 1 mg/mL. A general note: The colour change of resazurin is a common sign of viable cells or microbes.
The subject of experiment [2] is Bacillus subtilis (environmental isolate). Described as above. Type of experiment: cell-based. Details: key: Positive: A positive result indicates antibacterial activity expressed as growth inhibition; Negative: a negative result indicates no antibacterial activity expressed as bacterial growth at the tested concentration. The conditions noted are these: single high concentration of 1 mg/mL.

Experiment [3] has as its system S. aureus (ATCC 25923). The experiment can be described thus: MIC by broth microdilution. Type of experiment: cell-based. The conditions noted are these: Staphylococcus aureus, ATCC25923. An outline of the steps:
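CLSI broth microdilution in Mueller-Hinton broth, two-fold dilutions over 100–0.78 μg/mL, 20 hours at 37° C. CellTiter-Blue then added for 4 hours at 37° C.; MIC was the lowest concentration preventing the blue-to-pink colour change.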

Experiment [4] concerns MRSA-1 (clinical isolate, methicillin-resistant Staphylococcus aureus). Briefly: MIC by broth microdilution. Type of experiment: cell-based. In a few lines:
(§1)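 CLSI broth microdilution in Mueller-Hinton broth, two-fold series from 100 to 0.78 μg/mL, incubated 20 h at 37 °C. CellTiter-Blue then added for 4 h at 37 °C. MIC is the lowest concentration preventing the blue-to-pink color change, i.e. no bacterial growth.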
(Broth dilution looks for growth in wells or tubes with falling amounts of substance.)

The subject of experiment [5] is MRSA-2 (clinical isolate, methicillin-resistant Staphylococcus aureus). Briefly: MIC by broth microdilution. Type of experiment: cell-based. In a few lines:
as §1

Experiment [6] relates to MRSA-3 (clinical isolate, methicillin-resistant Staphylococcus aureus). The experiment can be described thus: MIC by broth microdilution. Type of experiment: cell-based. In a few lines: as §1
Experiment [7] has as its system UDH-1 (environmental isolate, S. saprophyticus). Briefly: MIC by broth microdilution. Type of experiment: cell-based. In a few lines:
(§2)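 The strains are multidrug-resistant environmental isolates, and MICs were measured by CLSI broth microdilution in Mueller-Hinton broth using two-fold dilutions from 100 to 0.78 μg/mL, incubated 20 h at 37 °C. CellTiter-Blue was then added for 4 h at 37 °C, and the MIC was taken as the lowest concentration preventing the blue-to-pink colour change.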

Experiment [8] deals with UDH-2 (environmental isolate, S. saprophyticus). The experiment can be described thus: MIC by broth microdilution. The note with it: Staphylococcus saprophyticus. Type of experiment: cell-based. In a few lines: as §2
Experiment [9] relates to UDH-3 (environmental isolate, S. saprophyticus). Briefly: MIC by broth microdilution. Type of experiment: cell-based. An outline of the steps:
as §2

Experiment [10] relates to UDH-4 (environmental isolate, S. saprophyticus). Briefly: MIC by broth microdilution. Type of experiment: cell-based. The note with it: Staphylococcus saprophyticus. An outline of the steps: as §2
In experiment [11] the test system is UDH-5 (environmental isolate, S. epidermidis). Briefly: MIC by broth microdilution. Type of experiment: cell-based. The conditions noted are these: Staphylococcus epidermidis. An outline of the steps: as §2
For experiment [12], the system named is UDH-6 (environmental isolate, S. haemolyticus). The experiment can be described thus: MIC by broth microdilution. Type of experiment: cell-based. In a few lines: as §2
For experiment [13], the system named is UDH-7 (environmental isolate, S. haemolyticus). The experiment can be described thus: MIC by broth microdilution. Type of experiment: cell-based. In a few lines:
as §2

Experiment [14] deals with MRSA-1. Briefly: Time-kill study. Type of experiment: cell-based, Staphylococcus aureus. The method, then: Time-kill study: Compound 1o was tested for the time required to kill the bacterial strain MRSA-1. A time-kill assay was performed by the broth micro-dilution method in accordance with the CLSI guidelines. Inoculum suspensions with approximately 5×10^5 CFU/mL of exponentially growing bacterial cells were incubated in each well of a 96-well plate. […] Aliquots of 20 μL were removed from the inoculum culture after timed intervals of incubation (i.e. 0, 30 minutes, 1, 2, 4, 6, 8, and 24 hours), and serial 10-fold dilutions were prepared in 0.85% sodium chloride solution. Then, 10-100 μL of each dilution (as appropriate) were spread on the surface of Mueller-Hinton agar plates and incubated at 37° C. for 24 hours. Plate count technique was used to determine the number of viable cells for each time point. The experiments were performed in triplicate. Meropenem and ciprofloxacin were used as quality control antibiotics.

Setting [15] is: Staphylococcus saprophyticus, environmental isolate.
The mark [16] stands for this setting: Staphylococcus haemolyticus, environmental isolate.

In general, MIC refers to the lowest concentration that inhibits growth of the organism. On to `COC(=O)CC1COc2c(cc3c4c2CCCN4CCC3)-c2c(NC(C)(C)C)n3c(-c4ccc(Br)cc4)c(C)sc3[n+]21` (centres unmarked) [Compound 1o], for which, in experiment [1], the “antibacterial activity, Staphylococcus aureus” value is given as “positive antibacterial activities”. For the same molecule, the “antibacterial activity, Bacillus subtilis” value in experiment [2] was “Positive”. The minimum inhibitory concentration (MIC) in [3] came to 3.12 µg/mL; in [4] (Staphylococcus aureus, MRSA, clinical isolate), 3.12 µg/mL; in experiment [5], 3.12 µg/mL; in experiment [6], 3.12 µg/mL; in [7] (setting [15]) it was 6.25 µg/mL; in experiment [8], 6.25 µg/mL. For the same molecule, the MIC is 3.12 µg/mL in [9] (setting [15]); 6.25 µg/mL in [10]; 3.12 µg/mL in experiment [11]; 6.25 µg/mL in experiment [12] (setting [16]); 6.25 µg/mL in experiment [13] (setting [16]). In experiment [4] (MRSA-1), the “times lower than the MIC of ciprofloxacin” value is given as “approximately 10 times”. The “times lower than MIC of ciprofloxacin” value in experiment [7] (UDH-1) is “approximately 10 times”; in experiment [9] (UDH-3) it was “approximately 20 times”; in experiment [12] (UDH-6) it was “approximately 10 times”; in experiment [13] (UDH-7), “approximately 10 times”. The “time of exposure at which killing was achieved” value was determined as 6 h in experiment [14] (12.5 μg/mL), 2 h in experiment [14] (25 μg/mL), 24 h in experiment [14] (3.125-6.25 μg/mL) and 0.5 h in experiment [14] (concentrations between 50-100 μg/mL). Besides, the “time of exposure to complete elimination of MRSA growth” value in experiment [14] (concentration ≥50 μg/mL) is at most 30 min.
